Drawing on ChEMBL document CHEMBL4138169, “Biological activity of dihydropyrimidinone (DHPM) derivatives: A systematic review” (Eur J Med Chem, 2018), this text covers inhibition for one molecule.

For this series, the target named is Cav1.2 (voltage-dependent L-type calcium channel subunit alpha-1C) (Homo sapiens, UniProt Q13936). The series can be described thus: Inhibition of human Cav1.2 expressed in HEK293 cells assessed as reduction in Ca2+ uptake at 100 uM measured as first 2 mins sampled at a frequency of one sample every second and the last 12 min at a frequency of one sample every 5 secs by fluo-3AM-based FLIPR assay. It is filed as cell-based. The following applies: HEK293 cells that express human Cav1.2.
Cav1.2 (voltage-dependent L-type calcium channel subunit alpha-1C), sequence (Q13936 whole entry): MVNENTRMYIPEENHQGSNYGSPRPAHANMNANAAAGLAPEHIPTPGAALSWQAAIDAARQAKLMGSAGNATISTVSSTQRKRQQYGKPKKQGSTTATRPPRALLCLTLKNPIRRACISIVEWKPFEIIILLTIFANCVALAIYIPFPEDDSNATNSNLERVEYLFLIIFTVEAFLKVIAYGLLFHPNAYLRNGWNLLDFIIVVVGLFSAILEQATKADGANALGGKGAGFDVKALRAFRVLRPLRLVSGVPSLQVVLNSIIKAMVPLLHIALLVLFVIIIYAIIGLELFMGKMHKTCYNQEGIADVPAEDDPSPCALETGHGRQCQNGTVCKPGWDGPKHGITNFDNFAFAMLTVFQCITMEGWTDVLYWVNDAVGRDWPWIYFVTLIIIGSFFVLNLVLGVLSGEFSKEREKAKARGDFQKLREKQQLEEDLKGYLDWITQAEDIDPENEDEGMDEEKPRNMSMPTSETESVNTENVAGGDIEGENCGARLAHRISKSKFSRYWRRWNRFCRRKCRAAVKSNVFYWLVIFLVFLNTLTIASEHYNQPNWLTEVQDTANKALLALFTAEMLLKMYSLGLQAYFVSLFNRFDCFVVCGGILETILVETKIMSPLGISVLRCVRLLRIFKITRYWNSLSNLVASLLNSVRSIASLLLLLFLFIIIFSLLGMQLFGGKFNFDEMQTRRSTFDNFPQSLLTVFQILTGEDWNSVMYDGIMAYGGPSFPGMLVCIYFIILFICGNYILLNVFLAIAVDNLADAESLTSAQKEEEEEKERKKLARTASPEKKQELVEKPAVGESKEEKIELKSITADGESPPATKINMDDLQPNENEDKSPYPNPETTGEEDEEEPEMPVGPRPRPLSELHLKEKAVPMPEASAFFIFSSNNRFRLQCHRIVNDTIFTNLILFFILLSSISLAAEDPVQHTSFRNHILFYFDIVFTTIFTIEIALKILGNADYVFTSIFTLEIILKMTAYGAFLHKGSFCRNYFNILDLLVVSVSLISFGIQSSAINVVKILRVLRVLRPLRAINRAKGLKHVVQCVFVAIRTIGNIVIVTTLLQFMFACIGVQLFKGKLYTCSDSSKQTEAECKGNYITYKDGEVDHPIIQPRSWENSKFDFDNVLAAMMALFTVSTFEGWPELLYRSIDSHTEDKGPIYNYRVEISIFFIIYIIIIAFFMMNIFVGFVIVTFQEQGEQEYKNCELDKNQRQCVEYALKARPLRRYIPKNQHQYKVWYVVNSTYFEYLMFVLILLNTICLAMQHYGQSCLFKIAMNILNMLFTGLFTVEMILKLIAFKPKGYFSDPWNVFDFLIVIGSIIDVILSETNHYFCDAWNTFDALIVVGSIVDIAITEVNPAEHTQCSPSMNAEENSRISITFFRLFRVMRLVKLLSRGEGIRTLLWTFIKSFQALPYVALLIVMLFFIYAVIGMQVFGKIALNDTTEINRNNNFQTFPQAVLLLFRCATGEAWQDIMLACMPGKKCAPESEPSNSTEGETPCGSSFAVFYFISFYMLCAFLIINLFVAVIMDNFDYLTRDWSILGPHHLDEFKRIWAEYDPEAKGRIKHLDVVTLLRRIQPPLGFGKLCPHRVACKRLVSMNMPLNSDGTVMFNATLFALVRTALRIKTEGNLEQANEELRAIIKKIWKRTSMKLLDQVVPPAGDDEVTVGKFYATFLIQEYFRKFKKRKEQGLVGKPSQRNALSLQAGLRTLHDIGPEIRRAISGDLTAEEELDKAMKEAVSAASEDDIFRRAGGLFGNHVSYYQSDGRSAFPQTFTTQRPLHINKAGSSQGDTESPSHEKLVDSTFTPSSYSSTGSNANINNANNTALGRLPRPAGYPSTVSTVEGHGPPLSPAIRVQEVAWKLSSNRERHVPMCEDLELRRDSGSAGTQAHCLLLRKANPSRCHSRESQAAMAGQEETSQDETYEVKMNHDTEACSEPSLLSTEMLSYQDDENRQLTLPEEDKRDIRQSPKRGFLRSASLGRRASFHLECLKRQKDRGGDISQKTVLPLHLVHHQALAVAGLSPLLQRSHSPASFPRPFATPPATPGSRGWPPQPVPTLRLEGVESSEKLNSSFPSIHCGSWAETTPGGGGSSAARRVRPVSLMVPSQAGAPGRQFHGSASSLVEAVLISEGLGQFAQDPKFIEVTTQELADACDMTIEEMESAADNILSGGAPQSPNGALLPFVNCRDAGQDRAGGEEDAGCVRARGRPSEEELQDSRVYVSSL

A word on the inhibition: it is the change of the read-out against control, counted positive when it falls. Turning to `CCOC(=O)C1=C(C)NC(=S)NC1c1cccc(O)c1` (stereo unspecified) [MONASTROL], the inhibition at 100 µM came out at 70%.
